Columns and labels:
[1] = system: ethanolic narcosis; assay: Ethanolic narcosis period in rats (righting reflex); type: in vivo, Hann.-Wistar rats; conditions: 1 h before ethanol i.p., n=10, control 100 ± 5.2
Method: The animals were treated with various doses of the compounds of the formula (I) in groups of ten, orally, One hour after treatment the rats were treated with […]. of ethanol intraperitoneally (i.p.). The narcosis period of the animals was measured from the elapse of the righting reflex until a spontaneous correction of the body position. The average of the narcosis period and the percentage difference from the control were calculated. The control group was treated with placebo and […]. of ethanol.

[2] = Acute oral toxicity, 14 days observation; conditions: rat, in vivo, 500 mg/kg
[3] = system: alcoholic intoxication, narcosis; conditions: in vivo; cited from earlier work
[4] = system: ethanolic locomotoric hyperactivity; conditions: mice; in a dose range which decreases spontaneous locomotoric activity; cited from earlier work
[5] = system: spontaneous locomotoric activity; conditions: in the dose range that normalizes ethanolic hyperactivity; cited from earlier work

Question: For CCC(O)(c1ccc(O)cc1)c1ccccc1C(F)(F)F (stereo not drawn) [A, 2-trifluoromethyl-4'-hydroxy-α-ethyl-benzhydrol], which “Ethanolic narcosis period, x ± S.E.” value ([1]; 5.0 mg./kg. orally) is on record?
Answer: 69 ± 4.5

Question: What about the “Ethanolic narcosis period, x ± S.E.” value ([1]; 20.0 mg./kg. orally) of the same compound?
Answer: 52 ± 6.0

Question: And the “Ethanolic narcosis period, x ± S.E.” value ([1]; 40.0 mg./kg. orally)?
Answer: 39 ± 3.4

Question: And the mortality at 336 h [2]?
Answer: 0%

Question: For CCC(O)(c1ccc(O)cc1)c1cccc(Cl)c1 (stereo not drawn) [B, 3-chloro-4'-hydroxy-α-ethyl-benzhydrol], which “Ethanolic narcosis period, x ± S.E.” value ([1]; 40.0 mg./kg. orally) is on record?
Answer: 60 ± 7.5

Question: And the mortality at 336 h [2]?
Answer: 0%

Question: Which “Ethanolic narcosis period, x ± S.E.” value ([1]; 500.0 mg./kg.) does the source give for N[C@@H](CS)C(=O)O [L-cysteine, reference compound] here?
Answer: 63 ± 4.2

Question: What about the “Ethanolic narcosis period, x ± S.E.” value ([1]; 1000.0 mg./kg.) of the same compound?
Answer: 66 ± 5.9

Question: What about the “Alcoholic intoxication, narcosis” value [3] of the same compound?
Answer: shortened

Question: Which results are given for CC(N)(Cc1ccc(O)cc1)C(=O)O (stereo not drawn) [α-Methyl-para-tyrosine]?
Answer: Ethanolic locomotoric hyperactivity [4]: normalizes the ethanolic locomotoric hyperactivity; Spontaneous locomotoric activity [5]: decreases the spontaneous locomotoric activity

— patent US4508926A, “4-Hydroxy-benzhydrols, process for their preparation and pharmaceutical compositions containing them” (Richter Gedeon Vegyeszeti Gyar Rt., priority 1982, dated 1985)
